In patent US9663526B2, “Aminopyrimidinyl compounds” (Pfizer Inc., priority 2014, dated 2017):
Read-outs that look alike come from different tables or passages of the source.

Columns and labels:
Assay type in all cases: biochemical
[1] = target: recombinant human kinase domain of TYK2 (Homo sapiens (Human), UniProt P29597); experiment: JAK Caliper enzyme assay at 1 mM ATP (TYK2); conditions: 1 mM ATP; read-out: IC50 (nM) TYK2;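 note: microfluidic mobility-shift readout of synthetic peptide phosphorylation by TYK2, tuned to 20–30% conversion at room temperature, reaction stopped with EDTA, DMSO-only wells as uninhibited baseline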
recombinant human kinase domain of TYK2, sequence (P29597 897-1176): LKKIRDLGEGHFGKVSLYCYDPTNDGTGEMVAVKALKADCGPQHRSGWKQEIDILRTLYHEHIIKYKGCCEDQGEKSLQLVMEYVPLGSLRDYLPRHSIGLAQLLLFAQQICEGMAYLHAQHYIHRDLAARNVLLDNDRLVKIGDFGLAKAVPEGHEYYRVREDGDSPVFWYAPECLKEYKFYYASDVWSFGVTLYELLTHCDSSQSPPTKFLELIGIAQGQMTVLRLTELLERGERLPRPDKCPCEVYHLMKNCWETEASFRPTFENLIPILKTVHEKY

[2] = target: recombinant human kinase domain of JAK3 (Homo sapiens (Human), UniProt P52333); experiment: JAK Caliper enzyme assay at 1 mM ATP (JAK3);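 note: microfluidic mobility-shift readout of synthetic peptide phosphorylation, percent product converted from peak heights, normalized to DMSO-only wells as uninhibited baseline, room temperature incubation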
recombinant human kinase domain of JAK3, sequence (P52333 822-1111): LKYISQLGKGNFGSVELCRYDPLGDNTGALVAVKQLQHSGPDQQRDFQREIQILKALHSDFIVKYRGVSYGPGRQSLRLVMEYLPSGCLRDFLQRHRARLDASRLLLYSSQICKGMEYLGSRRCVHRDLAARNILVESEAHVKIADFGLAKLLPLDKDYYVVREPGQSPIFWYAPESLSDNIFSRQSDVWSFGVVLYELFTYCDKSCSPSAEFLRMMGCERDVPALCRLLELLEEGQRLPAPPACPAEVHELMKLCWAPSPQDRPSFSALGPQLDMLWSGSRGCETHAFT

[3] = target: recombinant human kinase domain of JAK1 (Homo sapiens (Human), UniProt P23458); experiment: JAK Caliper enzyme assay at 1 mM ATP (JAK1); conditions: 1 mM ATP; read-out: IC50 (nM) JAK1;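 note: microfluidic mobility-shift readout of synthetic fluorescent peptide phosphorylation, percent product converted from peak height, inhibition relative to DMSO-only wells as uninhibited baseline, room temperature incubation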
recombinant human kinase domain of JAK1, sequence (P23458 875-1153): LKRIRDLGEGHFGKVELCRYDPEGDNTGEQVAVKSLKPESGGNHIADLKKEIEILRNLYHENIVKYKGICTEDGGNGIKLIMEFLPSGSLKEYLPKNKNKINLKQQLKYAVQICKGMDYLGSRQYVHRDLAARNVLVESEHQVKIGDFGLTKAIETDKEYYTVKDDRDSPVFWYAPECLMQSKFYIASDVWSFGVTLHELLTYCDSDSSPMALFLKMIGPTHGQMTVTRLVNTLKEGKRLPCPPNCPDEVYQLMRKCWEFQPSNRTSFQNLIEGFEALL

[4] = target: recombinant human kinase domain of JAK2 (Homo sapiens (Human), UniProt O60674); experiment: JAK Caliper enzyme assay at 1 mM ATP (JAK2);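 note: microfluidic mobility-shift read-out of fluorescent synthetic peptide phosphorylation, percent product converted from peak heights, room temperature, DMSO-only wells as uninhibited baseline, inhibition curve fit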
recombinant human kinase domain of JAK2, sequence (O60674 849-1124): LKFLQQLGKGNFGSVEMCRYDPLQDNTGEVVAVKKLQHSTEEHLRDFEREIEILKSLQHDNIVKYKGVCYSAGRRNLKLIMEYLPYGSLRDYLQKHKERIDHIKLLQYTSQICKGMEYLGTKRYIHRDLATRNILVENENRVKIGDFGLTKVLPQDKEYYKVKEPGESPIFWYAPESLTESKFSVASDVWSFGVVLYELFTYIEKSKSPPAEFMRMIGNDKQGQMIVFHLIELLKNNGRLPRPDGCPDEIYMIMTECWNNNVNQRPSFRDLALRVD

[5] = 1 mM ATP, read-out: IC50 (nM) JAK3

Structure (SMILES) | IC50 [1] [nM] | IC50 [2, 5] [nM] | IC50 [3] [nM] | IC50 [4] [nM] | IC50 [2] [nM]
Cn1cc(Nc2nccc(N3C[C@H]4CC[C@@H](C3)N4C(=O)[C@H]3C[C@H]3C#N)n2)cn1 [Example 38, (1R,2S)-2-{[(1R,5S)-3-{2-[(1-methyl-1H-pyrazol-4-yl)amino]pyrimidin-4-yl}-3,8-diazabicyclo[3.2.1]oct-8-yl]carbonyl}cyclopropanecarbonitrile] | 427 | > 10000 | 707 | 2330 | 
Cn1cc(Nc2nccc(N3C[C@H]4CC[C@@H](C3)N4C(=O)C3CC(F)(F)C3)n2)cn1 [Example 39, (3,3-difluorocyclobutyl)[(1R,5S)-3-{2-[(1-methyl-1H-pyrazol-4-yl)amino]pyrimidin-4-yl}-3,8-diazabicyclo[3.2.1]oct-8-yl]methanone] | 136 | > 10000 | 305 | 1170 | 
CNC(=O)c1cc(Nc2nccc(N3C[C@H]4CC[C@@H](C3)N4C(=O)[C@@H]3CC3(F)F)n2)cc(C)n1 [Example 40, 4-({4-[(1R,5S)-8-{[(1S)-2,2-difluorocyclopropyl]carbonyl}-3,8-diazabicyclo[3.2.1]oct-3-yl]pyrimidin-2-yl}amino)-N,6-dimethylpyridine-2-carboxamide] | 70 | > 10000 | 369 | 189 | 
CNC(=O)c1cc(Nc2nccc(N3C[C@H]4CC[C@@H](C3)N4C(=O)[C@@H]3CC3(F)F)n2)cc(CO)n1 [Example 41, 4-({4-[(1R,5S)-8-{[(1S)-2,2-difluorocyclopropyl]carbonyl}-3,8-diazabicyclo[3.2.1]oct-3-yl]pyrimidin-2-yl}amino)-6-(hydroxymethyl)-N-methylpyridine-2-carboxamide] | 84 | > 10000 | 201 | 279 | 
Cn1cc(Nc2nccc(N3C[C@H]4CC[C@@H](C3)N4C(=O)[C@@H]3C[C@@H]3F)n2)cn1 [Example 43, [(1S,2S)-2-fluorocyclopropyl][(1R,5S)-3-{2-[(1-methyl-1H-pyrazol-4-yl)amino]pyrimidin-4-yl}-3,8-diazabicyclo[3.2.1]oct-8-yl]methanone] | 474 | > 10000 | 902 | 2840 | 
Cn1cc(Nc2nccc(N3C[C@H]4CC[C@@H](C3)N4C(=O)Nc3ccc(C(F)(F)F)cn3)n2)cn1 [Example 48, (1R,5S)-3-{2-[(1-methyl-1H-pyrazol-4-yl)amino]pyrimidin-4-yl}-N-[5-(trifluoromethyl)pyridin-2-yl]-3,8-diazabicyclo[3.2.1]octane-8-carboxamide] | 964 | > 10000 | 300 | 2510 | 
O=C(C1CC1)N1[C@@H]2CC[C@H]1CN(c1ccnc(Nc3cnsc3)n1)C2 [Example 52, cyclopropyl{(1R,5S)-3-[2-(1,2-thiazol-4-ylamino)pyrimidin-4-yl]-3,8-diazabicyclo[3.2.1]oct-8-yl}methanone] | 93 | > 10000 | 172 | 1240 | 
Cn1cc(Nc2nccc(N3C[C@H]4CC[C@@H](C3)N4C[C@H]3CC3(F)F)n2)cn1 [Example 63, 4-[(1R,5S)-8-{[(1R)-2,2-difluorocyclopropyl]methyl}-3,8-diazabicyclo[3.2.1]oct-3-yl]-N-(1-methyl-1H-pyrazol-4-yl)pyrimidin-2-amine] | 125 | > 10000 | 303 | 856 | 
CNC(=O)c1ncc(Nc2nccc(N3C[C@H]4CC[C@@H](C3)N4C[C@H]3CC3(F)F)n2)cc1C [Example 68, 5-({4-[(1R,5S)-8-{[(1R)-2,2-difluorocycloproDyl]methyl}-3,8-diazabicyclo[3.2.1]oct-3-yl]pyrimidin-2-yl}amino)-N,3-dimethylpyridine-2-carboxamide] | 22 | > 10000 | 85 | 188 | 
Cn1cc(Nc2nccc(N3C[C@H]4CC[C@@H](C3)N4C[C@H]3C[C@@H]3C#N)n2)cn1 [Example 69, (1S,2S)-2-{[(1R,5S)-3-{2-[(1-methyl-1H-pyrazol-4-yl)amino]pyrimidin-4-yl}-3,8-diazabicyclo[3.2.1]oct-8-yl]methyl}cyclopropanecarbonitrile] | 811 |  | 1100 | 5700 | > 10000
Cn1cc(Nc2nccc(N3C[C@H]4CC[C@@H](C3)N4C[C@H]3C[C@@H]3C#N)n2)cn1 [Example 70, (1S,2S)-2-{[(1R,5S)-3-{2-[(1-methyl-1H-pyrazol-4-yl)amino]pyrimidin-4-yl}-3,8-diazabicyclo[3.2.1 l]oct-8-yl]methyl}cyclopropanecarbonitrile] | 261 | > 10000 | 259 | 1540 | 
CCNC(=O)c1ccc(Nc2ncc(F)c(N3C[C@H]4CC[C@@H](C3)N4C(=O)OC(C)(C)C)n2)cc1C [Example 73, tert-butyl 3-(2-{[4-(ethylcarbamoyl)-3-methylphenyl]amino}-5-fluoropyrimidin-4-yl)-3,8-diazabicyclo[3.2.1]octane-8-carboxylate] | 17 | 1770 | 260 | 170 | 
Cn1cc(Nc2nccc(N3C[C@H]4CC[C@@H](C3)N4C(N)=O)n2)cn1 [Example 76, (1R,5S)-3-{2-[(1-methyl-1H-pyrazol-4-yl)amino]pyrimidin-4-yl}-3,8-diazabicyclo[3.2.1]octane-8-carboxamide] | 662 | > 10000 | 537 | 1480 | 
Cn1cc(Nc2nccc(N3C[C@H]4CC[C@@H](C3)N4S(C)(=O)=O)n2)cn1 [Example 77, N-(1-methyl-1H-pyrazol-4-yl)-4-[(1R,5S)-8-(methylsulfonyl)-3,8-diazabicyclo[3.2.1]oct-3-yl]pyrimidin-2-amine] | 256 | > 10000 | 380 | 653 | 
Cn1cc(Nc2nccc(N3C[C@H]4CC[C@@H](C3)N4c3ncc(C#N)o3)n2)cn1 [Example 78, 2-[(1R,5S)-3-{2-[(1-methyl-1H-pyrazol-4-yl)amino]pyrimidin-4-yl}-3,8-diazabicyclo[3.2.1]oct-8-yl]-1,3-oxazole-5-carbonitrile] | 63 | > 10000 | 68 | 461 | 
CC(CC#N)N1[C@@H]2CC[C@H]1CN(c1ccnc(Nc3cnn(C)c3)n1)C2 (stereo partly drawn) [Example 81] | 199 | > 10000 | 405 | 603 | 
CC(CC#N)N1[C@@H]2CC[C@H]1CN(c1ccnc(Nc3cn[nH]c3)n1)C2 (stereo partly drawn) [Example 82, 3-{(1R,5S)-3-[2-(1H-pyrazol-4-ylamino)pyrimidin-4-yl]-3,8-diazabicyclo[3.2.1]oct-8-yl}butanenitrile] | 79 | > 10000 | 135 | 473 | 
CC(C)NC(=O)N1[C@@H]2CC[C@H]1CN(c1ccnc(Nc3cnn(C)c3)n1)C2 [Example 88, (1R,5S)-3-{2-[(1-methyl-1H-pyrazol-4-yl)amino]pyrimidin-4-yl}-N-(propan-2-yl)-3,8-diazabicyclo[3.2.1]octane-8-carboxamide] | 110 | > 10000 | 165 | 894 | 
Cn1cc(Nc2nccc(N3C[C@H]4CC[C@@H](C3)N4c3cc(C#N)ccn3)n2)cn1 [Example 92, 2-[(1R,5S)-3-{2-[(1-methyl-1H-pyrazol-4-yl)amino]pyrimidin-4-yl}-3,8-diazabicyclo[3.2.1]oct-8-yl]pyridine-4-carbonitrile] | 62 | 6560 | 52 | 264 | 
C[C@@H]1[C@@H]2CN(c3nc(Nc4cnn(C5COC5)c4)ncc3F)C[C@]12NC(=O)[C@@H]1CC1(F)F [Example 99, (1S)-2,2-difluoro-N-[(1S,5R,6R)-3-(5-fluoro-2-{[1-(oxetan-3-yl)-1H-pyrazol-4-yl]amino}pyrimidin-4-yl)-6-methyl-3-azabicyclo[3.1.0]hex-1-yl]cyclopropanecarboxamide] | 26 | 4940 | 65 | 391 | 
CNC(=O)c1ncc(Nc2ncc(F)c(N3C[C@H]4[C@@H](C)[C@@]4(NC(=O)C4CC4)C3)n2)cc1C [Example 100, 5-[(4-{(1S,5R,6R)-1-[(cyclopropylcarbonyl)amino]-6-methyl-3-azabicyclo[3.1.0]hex-3-yl}-5-fluoropyrimidin-2-yl)amino]-N,3-dimethylpyridine-2-carboxamide] | 97 | > 10000 | 965 | 4250 | 
CNC(=O)c1ncc(Nc2ncc(F)c(N3C[C@@H]4[C@H](C)[C@]4(NC(=O)C4CC4)C3)n2)cc1C [Example 101, 5-[(4-{(1R,5S,6S)-1-[(cyclopropylcarbonyl)amino]-6-methyl-3-azabicyclo[3.1.0]hex-3-yl}-5-fluoropyrimidin-2-yl)amino]-N,3-dimethylpyridine-2-carboxamide] | 663 | > 10000 | 1880 | 2910 | 
C[C@@H]1[C@@H]2CN(c3nc(Nc4cnc(CO)c(Cl)c4)ncc3F)C[C@]12NC(=O)C1CC1 [Example 105, N-[(1S,5R,6R)-3-(2-{[5-chloro-6-(hydroxymethyl)pyridin-3-yl]amino}-5-fluoropyrimidin-4-yl)-6-methyl-3-azabicyclo[3.1.0]hex-1-yl]cyclopropanecarboxamide] | 152 | > 10000 | 1570 | 6100 | 
O=C(N[C@@]12C[C@@H]1CN(c1nc(Nc3cnn(CCO)c3)ncc1Cl)C2)C1CC1 [Example 107, N-[(1S,5R)-3-(5-chloro-2-{[1-(2-hydroxyethyl)-1H-pyrazol-4-yl]amino}pyrimidin-4-yl)-3-azabicyclo[3.1.0]hex-1-yl]cyclopropanecarboxamide] | 21 | 1880 | 19 | 177 | 
